What was measured:
[1] = target: T1, LPA/S1P GPCR of interest (Homo sapiens, UniProt Q92633); test: Beta-Arrestin based assay (PathHunter); format: cell-based
T1 construct: host or cells: CHO
Procedure, shortened: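 EA Parental CHO cells (DiscoverX) were transfected with FuGENE (Roche) using CMV promoter-driven DNA constructs encoding the LPA/S1P GPCR of interest fused to a ProLink tag. Beta-arrestin recruitment in agonist mode was assessed 24-48 hrs later with PathHunter kits. Tests ran in quadruplicate in white 384 well plates, and end point luminescence was fit to a 4 parameter logistic function.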

[2] = target: LPA1 (Homo sapiens, UniProt Q92633); test: LPA1 Migration Assay (Oris); format: cell-based; design: host or cells: primary fibroblasts (lung, dermal), HFL-1, 3T3 and CHO cells expressing LPA1R; conditions: read-out: Cell Migration EC50
Sequence of LPA1 (Q92633 whole entry): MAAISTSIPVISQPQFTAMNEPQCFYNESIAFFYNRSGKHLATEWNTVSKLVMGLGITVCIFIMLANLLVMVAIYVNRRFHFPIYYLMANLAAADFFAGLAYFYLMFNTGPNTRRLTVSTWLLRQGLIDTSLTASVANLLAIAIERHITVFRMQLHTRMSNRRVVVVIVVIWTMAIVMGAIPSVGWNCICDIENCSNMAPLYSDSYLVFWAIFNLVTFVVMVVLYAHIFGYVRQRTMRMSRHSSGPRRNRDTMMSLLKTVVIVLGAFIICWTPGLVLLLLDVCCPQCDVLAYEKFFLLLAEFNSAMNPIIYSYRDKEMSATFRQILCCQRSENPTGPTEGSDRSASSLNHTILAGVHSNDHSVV
Source text: LPA1 Migration Assay Migration of primary fibroblasts (including lung, dermal), HFL-1, 3T3 and CHO cells expressing LPA1R were monitored using the Oris™ assay (Platypus Technologies, Madison, Wis.). These cells were dye (Cell Tracker Green™) loaded and serum starved for 12-24 hrs. In response to chemoattractants such as LPA and serum, the cells migrated inward in to the exclusion (detection) zone. After fixing, fluorescent cells in the detection zone were counted using a high content reader. The ability of LPA1 antagonists to inhibit cell migration is quantified by plotting cell number vs. compound concentration and curve fitting the resulting dose-response curve to a 4 parameter logistic function.

T1 sequence (Q92633 whole entry): as above

EC50 [1] | EC50 [2] | Structure (SMILES)
50 to 500 nM | 50 to 500 nM | COC(=O)c1ccccc1Oc1ccc(-c2ccc(-c3nnn(C)c3NC(=O)O[C@H](C)c3ccccc3)cc2)cc1 [IT478]
50 to 500 nM | > 500 nM | Cc1nnn(-c2ccc(-c3ccc(Oc4ccccc4C(=O)O)cc3)cc2)c1NC(=O)O[C@H](C)c1ccccc1 [IT310]
< 50 nM | 50 to 500 nM | Cc1nsc(-c2ccc(-c3cc(F)c(Oc4cccnc4C(=O)O)c(F)c3)cc2)c1NC(=O)O[C@H](C)c1ccccc1 [IT464]
> 500 nM | > 500 nM | Cc1nsc(-c2ccc(-c3ccc(CC(=O)O)s3)cc2)c1NC(=O)O[C@H](C)c1ccccc1 [IT141]
< 50 nM | 50 to 500 nM | CCOC(=O)c1ccccc1Oc1ccc(-c2ccc(-c3nnn(C)c3NC(=O)O[C@H](C)c3ccccc3)cc2)cc1 [IT477]
< 50 nM | 50 to 500 nM | C[C@@H](OC(=O)Nc1c(-c2cc3sc(-c4cc(F)c(C5(C(=O)O)CC5)cc4F)cc3s2)cnn1C)c1ccccc1 [IT347]
50 to 500 nM | > 500 nM | Cc1cc(CC(=O)O)ccc1-c1cc2sc(-c3cnn(C)c3NC(=O)O[C@H](C)c3ccccc3)cc2s1 [IT169]
< 50 nM | 50 to 500 nM | Cc1noc(-c2ccc(-c3ccc(Oc4cc(F)ccc4C(=O)O)cc3)cc2)c1NC(=O)O[C@H](C)c1ccccc1 [IT467]
< 50 nM | 50 to 500 nM | Cc1noc(-c2ccc(-c3ccc(OC(C)(C)C(=O)O)c(F)c3)cc2)c1NC(=O)O[C@H](C)c1ccccc1 [IT506]
> 500 nM | > 500 nM | CC(=O)N(C(C)=O)S(=O)(=O)c1ccc(-c2ccc(-c3onc(C)c3NC(=O)O[C@H](C)c3ccccc3)cc2)cc1 [IT130]
> 500 nM | > 500 nM | C[C@@H](OC(=O)Nc1c(-c2cc3sc(-c4ccc(CC(=O)O)cc4Cl)cc3s2)nnn1C)c1ccccc1 [IT168]
< 50 nM | 50 to 500 nM | C[C@@H](OC(=O)Nc1c(-c2cc3sc(-c4ccc(C5(C(=O)O)CC5)cc4Cl)cc3s2)cnn1C)c1ccccc1 [IT389]
< 50 nM | 50 to 500 nM | Cc1onc(-c2cc3sc(C#CC4(C(=O)O)CC4)cc3s2)c1NC(=O)O[C@H](C)c1ccccc1 [IT418]
< 50 nM | 50 to 500 nM | C[C@@H](OC(=O)Nc1c(-c2cc(F)c(-c3nc4sc(C5(C(=O)O)CC5)cc4s3)cc2F)cnn1C)c1ccccc1 [IT279]
< 50 nM | > 500 nM | C[C@@H](OC(=O)Nc1c(-c2ccc(-c3cc(F)c(OC4(C(=O)O)CC4)c(F)c3)cc2)cnn1C)c1ccccc1 [IT314]
> 500 nM | > 500 nM | CNS(=O)(=O)c1ccc(-c2ccc(-c3onc(C)c3NC(=O)O[C@H](C)c3ccccc3)cc2)cc1 [IT128]
> 500 nM | > 500 nM | C[C@@H](OC(=O)Nc1c(-c2cc3sc(-c4cc(Cl)c(CC(=O)O)cc4F)cc3s2)nnn1C)c1ccccc1 [IT186]
< 50 nM | 50 to 500 nM | C[C@@H](OC(=O)Nc1c(-c2cc3sc(-c4ccc(C5(C(=O)O)CC5)cc4)cc3s2)nnn1C)c1ccccc1 [IT149]
> 500 nM | > 500 nM | COc1cc(CC(=O)O)ccc1-c1cc2sc(-c3nnn(C)c3NC(=O)O[C@H](C)c3ccccc3)cc2s1 [IT183]
< 50 nM | 50 to 500 nM | Cc1nsc(-c2cc3sc(-c4cc(F)c(C5(C(=O)O)CC5)c(F)c4)cc3s2)c1NC(=O)O[C@H](C)c1ccccc1 [IT263]
50 to 500 nM | 50 to 500 nM | C[C@@H](OC(=O)Nc1c(-c2ccc(-c3ccc(C(C(=O)O)C4COC4)cc3)cc2)cnn1C)c1ccccc1 (some centres unmarked) [IT150]
> 500 nM | > 500 nM | Cc1noc(-c2ccc(-c3ccc(S(=O)(=O)N4CCCC4)cc3)cc2)c1NC(=O)O[C@H](C)c1ccccc1 [IT153]
> 500 nM | > 500 nM | Cc1noc(-c2ccc(-c3ccc(S(=O)(=O)CC4CC4)cc3)cc2)c1NC(=O)O[C@H](C)c1ccccc1 [IT174]
> 500 nM | > 500 nM | Cc1nsc(-c2cc3sc(-c4ccc(CC(=O)O)nc4)cc3s2)c1NC(=O)O[C@H](C)c1ccccc1 [IT185]
50 to 500 nM | > 500 nM | C[C@@H](OC(=O)Nc1c(-c2cc3sc(-c4cnc(C5(C(=O)O)CC5)s4)cc3s2)nnn1C)c1ccccc1 [IT189]
50 to 500 nM | > 500 nM | Cc1nnn(-c2ccc(-c3cc(F)c(Oc4ccncc4C(=O)O)c(F)c3)cc2)c1NC(=O)O[C@H](C)c1ccccc1 [IT440]
50 to 500 nM | > 500 nM | C[C@@H](OC(=O)Nc1c(-c2ccc(-c3ccc(CC(=O)O)s3)cc2)nnn1C)c1ccccc1 [IT178]
50 to 500 nM | > 500 nM | Cc1noc(-c2ccc(-c3ccc4c(c3)CCCC4C(=O)O)cc2)c1NC(=O)O[C@H](C)c1ccccc1 (mixture of isomers) [IT038]

EC50 [1] | EC50 [2] | Structure (SMILES)
50 to 500 nM | > 500 nM | Cc1cc(CC(=O)O)ccc1-c1cc2sc(-c3nnn(C)c3NC(=O)O[C@H](C)c3ccccc3)cc2s1 [IT171]
< 50 nM | < 50 nM | C[C@@H](OC(=O)Nc1c(-c2ccc(-c3ccc(Oc4cc(F)ccc4C(=O)O)cc3)cc2)nnn1C)c1ccccc1 [IT468]
< 50 nM | 50 to 500 nM | C[C@@H](OC(=O)Nc1c(-c2cc3sc(-c4ccc(C5(C(=O)O)CC5)nc4)cc3s2)nnn1C)c1ccccc1 [IT270]
> 500 nM | > 500 nM | Cc1noc(-c2ccc(-c3ccc(NC(=O)OC(C)(C)C)cc3)cc2)c1NC(=O)O[C@H](C)c1ccccc1 [IT194]
50 to 500 nM | > 500 nM | Cc1nnn(-c2ccc(-c3ccc(Oc4cccc(F)c4C(=O)O)cc3)cc2)c1NC(=O)O[C@H](C)c1ccccc1 [IT457]
< 50 nM | > 500 nM | C[C@@H](OC(=O)Nc1c(-c2cc3sc(C#CC4(C(=O)O)CC4)cc3s2)nnn1C)c1ccccc1 [IT145]
< 50 nM | 50 to 500 nM | Cc1noc(-c2ccc(-c3ccc(Oc4scnc4C(=O)O)cc3)cc2)c1NC(=O)O[C@H](C)c1ccccc1 [IT420]
50 to 500 nM | > 500 nM | Cc1nsc(-c2ccc(-c3cc(F)c(OC(C)(C)C(=O)O)c(F)c3)cc2)c1NC(=O)O[C@H](C)c1ccccc1 [IT502]
< 50 nM | > 500 nM | Cc1nsc(-c2ccc(-c3cc(F)c(Oc4ccncc4C(=O)O)c(F)c3)cc2)c1NC(=O)O[C@H](C)c1ccccc1 [IT439]
< 50 nM | 50 to 500 nM | Cc1noc(-c2ccc(-c3ccc4c(c3)CC(C)(C(=O)O)O4)cc2)c1NC(=O)O[C@H](C)c1ccccc1 (some centres unmarked) [IT498]
> 500 nM | > 500 nM | Cc1nsc(-c2cc3sc(-c4ccc(CC(=O)O)c(Cl)c4)cc3s2)c1NC(=O)O[C@H](C)c1ccccc1 [IT167]
< 50 nM | < 50 nM | Cc1nsc(-c2ccc(-c3cc(F)c(Oc4ccsc4C(=O)O)c(F)c3)cc2)c1NC(=O)O[C@H](C)c1ccccc1 [IT462]
< 50 nM | 50 to 500 nM | C[C@@H](OC(=O)Nc1c(-c2ccc(-c3ccc(C(C(=O)O)C4CCC4)cc3)cc2)cnn1C)c1ccccc1 (some centres unmarked) [IT151]
> 500 nM | > 500 nM | Cc1nsc(-c2cc3sc(-c4ccc(CC(=O)O)cc4N)cc3s2)c1NC(=O)O[C@H](C)c1ccccc1 [IT182]
< 50 nM | 50 to 500 nM | C[C@@H](OC(=O)Nc1c(-c2cc3sc(-c4ccc(C5(C(=O)O)CC5)c(F)c4)cc3s2)nnn1C)c1ccccc1 [IT296]
< 50 nM | 50 to 500 nM | Cc1noc(-c2ccc(-c3ccc(Oc4nc5ccccc5cc4C(=O)O)cc3)cc2)c1NC(=O)O[C@H](C)c1ccccc1 [IT482]
50 to 500 nM | > 500 nM | C[C@@H](OC(=O)Nc1c(-c2ccc(-c3ccc(OC4(C(=O)O)CC4)c(F)c3)cc2)oc2ccccc12)c1ccccc1 [IT492]
50 to 500 nM | 50 to 500 nM | C[C@@H](OC(=O)Nc1c(C#Cc2cc(F)c(OC3(C(=O)O)CC3)c(F)c2)cnn1C)c1ccccc1 [IT311]
> 500 nM | > 500 nM | C[C@@H](OC(=O)Nc1c(C#Cc2cc3sc(C4(C(=O)O)CC4)cc3s2)cnn1C)c1c(F)c(F)c(F)c(F)c1F [IT118]
50 to 500 nM | > 500 nM | Cc1nsc(-c2cc3sc(-c4ccc(CC(=O)O)cc4F)cc3s2)c1NC(=O)O[C@H](C)c1ccccc1 [IT135]
50 to 500 nM | > 500 nM | Cc1nsc(-c2cc3sc(-c4cc(F)c(CC(=O)O)c(F)c4)cc3s2)c1NC(=O)O[C@H](C)c1ccccc1 [IT156]
50 to 500 nM | > 500 nM | C[C@@H](OC(=O)Nc1c(-c2cc3sc(-c4ccc(CC(=O)O)cc4Cl)cc3s2)cnn1C)c1ccccc1 [IT140]
< 50 nM | 50 to 500 nM | C[C@@H](OC(=O)Nc1c(-c2cc3sc(-c4cc(Cl)c(C5(C(=O)O)CC5)cc4F)cc3s2)nnn1C)c1ccccc1 [IT285]
50 to 500 nM | 50 to 500 nM | C[C@@H](OC(=O)Nc1c(-c2cc3sc(-c4cc(F)c(CC(=O)O)c(F)c4)cc3s2)nnn1C)c1ccccc1 [IT158]
< 50 nM | 50 to 500 nM | C[C@@H](OC(=O)Nc1c(-c2ccc(-c3ccc(Oc4cccc(F)c4C(=O)O)cc3)cc2)cnn1C)c1ccccc1 [IT456]
> 500 nM | > 500 nM | CCOc1cc(CC(=O)O)ccc1-c1cc2sc(-c3snc(C)c3NC(=O)O[C@H](C)c3ccccc3)cc2s1 [IT192]
< 50 nM | 50 to 500 nM | Cc1noc(-c2ccc(-c3ccc(Oc4ccccc4C(=O)O)cn3)cc2)c1NC(=O)O[C@H](C)c1ccccc1 [IT344]
